Columns and labels:
NDM-1 BAA2469 E. coli = assay type: in vivo; details: mice, intravenous; rifampicin 10 mg/kg, colistin 20 mg/kg, HT0120663 5 mg/kg; singly
enterobacteria = details: on some enterobacteria; cited from earlier work
[1] = tested on: NDM-1 BAA2470 K. pneumoniae; assay type: in vivo; details: mice, intravenous; rifampicin 10 mg/kg, colistin 20 mg/kg, HT0120663 5 mg/kg; singly

| Molecule | in vivo activity of drug alone (NDM-1 BAA2469 E. coli) | antibacterial effect (enterobacteria) | in vivo activity of drug alone [1] |
| --- | --- | --- | --- |
| Cc1cn([C@H]2C[C@H](N=[N+]=[N-])[C@@H](CO)O2)c(=O)[nH]c1=O [HT0120663, Zidovudine] | no in vivo activity | bactericidal effect | no in vivo activity |
| Colistin | no in vivo activity |  | no in vivo activity |

Source: patent US10098904B2, “Zidovudine combination therapies for treating microbial infections” (HELPERBY THERAPEUTICS LIMITED, priority 2014, dated 2018)
